One series deals with K. pneumoniae. Nature of the series: MIC, broth microdilution in MHB. It counts as cell-based, K. pneumoniae KPLN49. The conditions noted are these: first concentration without visible growth, mode of at least three independent experiments. How it is done: (§1) The following bacterial pathogens were used in this study: S. enterica subsp. enterica serovar Typhimurium ATCC 14028, E. coli O157:H7 [83], the clinical isolates S. aureus SAP0017 [84] and USA300 LAC [85], E. faecium #1-1 [85], A. baumannii Ab5075 [85] and E. cloacae 218R1 [85], as well as P. aeruginosa PAO1 [34], P. vulgaris HSC7200-T2 (Hancock Lab strain collection) and K. pneumoniae KPLN49 [85].
(§2) Overnight cultures were grown in LB at 37 °C with shaking at 250 rpm, except for E. faecium, which was grown in BHI medium.
(§3) The antimicrobial activity of the crocCATHs was evaluated with the broth microdilution method as described previously. MIC was defined as the first peptide or antibiotic concentration without visible bacterial growth. Reported values are the statistical mode of at least three independent experiments.
Background: Dilution methods test growth across graded concentrations, often in twofold steps.

The subject of another series is E. cloacae. It counts as cell-based, E. cloacae 218R1. How it is done: as §1, §2, §3
The subject of a further series is A. baumannii. Nature of the series: MIC, broth microdilution in MHB. It counts as cell-based, A. baumannii Ab5075. The conditions noted are these: first concentration without visible growth, mode of at least three independent experiments. How it is done:
as §1, §2, §3

A further series concerns P. vulgaris. It counts as cell-based, P. vulgaris HSC7200-T2. As to conditions: microdilution in MHB, first concentration without visible growth, mode of at least three independent experiments. How it is done:
as §1, §2, §3

Another series deals with S. aureus. Nature of the series: MIC, broth microdilution in MHB. As to conditions: first concentration without visible growth, mode of at least three independent experiments. It is filed as cell-based. How it is done: as §1, §2, §3
In another series the test system is S. Typhimurium. It is filed as cell-based, S. enterica subsp. enterica serovar Typhimurium ATCC 14028. How it is done: as §1, §2, §3
In another series the test system is P. aeruginosa. Nature of the series: MIC, broth microdilution in MHB. It counts as cell-based, P. aeruginosa PAO1. As to conditions: first concentration without visible growth, mode of at least three independent experiments. How it is done:
as §1, §2, §3

A further series has as its system E. coli biofilm. It is filed as cell-based, E. coli O157:H7. The conditions noted are these: BM2 minimal medium + 0.4% glucose, crystal violet, at least 95% inhibition of mean biofilm growth, at least three independent experiments. How it is done: (§4) Bacterial biofilm inhibition assays were performed using a microtiter assay as described by Haney et al.. For E. cloacae, E. coli, P. aeruginosa and S. Typhimurium, assays were performed using BM2 minimal medium (62 mM potassium phosphate, 7 mM ammonium sulfate, 0.5 mM magnesium sulfate, pH 7.0) supplemented with 0.4% glucose (w/v). Antibiofilm activity against A. baumannii and S. aureus SAP0017 was evaluated in 10% TSB (v/v) media supplemented with 0.1% glucose (w/v), whereas 10% THB (v/v) medium was employed for P. vulgaris.
(§5) Data from at least three independent experiments were analyzed as the percentage of biofilm mass compared to the untreated control. After crystal violet staining, MBIC95 was then calculated for each peptide, defined as the minimal peptide concentration capable of inhibiting mean biofilm growth by at least 95% compared to the untreated control.

For the next series, the system named is E. faecium. Nature of the series: MIC, broth microdilution in MHB. It counts as cell-based, E. faecium #1-1. As to conditions: first concentration without visible growth, mode of at least three independent experiments. How it is done: as §1, §2, §3
In a further series the test system is P. aeruginosa biofilm. It counts as cell-based, P. aeruginosa PAO1. How it is done: as §4, §5
A further series relates to E. coli. It counts as cell-based, E. coli O157:H7. The conditions noted are these: microdilution in MHB, first concentration without visible growth, mode of at least three independent experiments. How it is done: as §1, §2, §3
In series [1] the test system is peripheral blood mononuclear cells (PBMCs). Nature of the series: LDH release cytotoxicity assay. It is filed as cell-based. As to conditions: human PBMCs; at the highest concentrations tested (5 and 10 μM); relative to Triton X-100 control. How it is done:
Human PBMCs were isolated from human blood following the ethics protocols of the University of British Columbia, Canada. Consent was obtained from healthy volunteers before blood donation. Isolation and treatment of unstimulated PBMC was performed as previously described.
(§6) Peptide-induced cytotoxicity was assessed by measuring the extracellular activity of the LDH enzyme using the Cytotoxicity Detection Kit (MilliporeSigma, Burlington, MA, USA) as previously described. The percentage of LDH release relative to the untreated (negative) and Triton X-100 (positive, 100% cytotoxicity) control was assessed for at least three biological replicates and recorded as percent cytotoxicity.
For orientation: LDH in the medium is a marker of cell lysis.

Series [2] concerns human bronchial epithelial (HBE) cells. Briefly: LDH release cytotoxicity assay. It is filed as cell-based. The conditions noted are these: HBE cells (16HBE14o-); at the highest concentrations tested (5 and 10 μM); relative to Triton X-100 control. How it is done:
Immortalized human bronchial epithelial (HBE) cells (16HBE14o-) were used for in vitro cytotoxicity experiments as described elsewhere.
as §6

The conditions of series [3]: subcutaneous, 15 mg/kg, peptide alone, uninfected animals. An excerpt:
The antibacterial capacities of As-CATH8 and Gg-CATH5 were further evaluated in the murine skin infection/abscess model. Mice were inoculated with clinical isolates of S. aureus and A. baumannii, two frequent causes of human skin infections. […] Therefore, the peptides were considered non-toxic at the doses used.

≈ marks a conversion by molar mass, not a printed value. Read-outs that look alike come from different tables or passages of the source. Residues, ends and D or L forms follow the SMILES beside them.

Turning to `CC(C)C[C@H](NC(=O)[C@H](C)NC(=O)[C@@H](NC(=O)[C@H](CC(N)=O)NC(=O)[C@H](CCCNC(=N)N)NC(=O)CNC(=O)[C@@H](NC(=O)[C@H](CCCCN)NC(=O)[C@H](CCCNC(=N)N)NC(=O)[C@H](Cc1c[nH]c2ccccc12)NC(=O)[C@H](CC(N)=O)NC(=O)[C@@H](NC(=O)[C@H](CCCNC(=N)N)NC(=O)[C@@H](N)CCCCN)C(C)C)C(C)C)[C@@H](C)O)C(=O)NCC(=O)N[C@@H](C)C(=O)N[C@@H](CO)C(=O)N[C@@H](Cc1ccc(O)cc1)C(=O)N[C@H](C(=O)N[C@@H](CC(C)C)C(=O)N[C@@H](CO)C(=O)N[C@@H](Cc1ccccc1)C(=O)N[C@@H](CC(C)C)C(=O)NCC(=O)O)C(C)C` [As-CATH7] (H-KRVNWRKVGRNTALGASYVLSFLG-OH), the minimal inhibitory concentration (MIC) (commonly the lowest concentration found to suppress growth) in the series with K. pneumoniae is 1 µM (≈ 2.69 µg/mL); in the series with E. cloacae, 0.5 µM (≈ 1.35 µg/mL); against A. baumannii, 0.25 µM (≈ 0.673 µg/mL); against P. vulgaris, above 64 µM; in the series with S. aureus, 4 µM (≈ 10.8 µg/mL); with S. Typhimurium, 2 µM. In addition, the minimal inhibitory concentration (MIC) against P. aeruginosa is 4 µM (≈ 10.8 µg/mL); against E. faecium it was above 64 µM; in the series on E. coli, 2 µM (≈ 5.39 µg/mL). The MBIC95 in the series with E. coli biofilm was 32 µM; with P. aeruginosa biofilm it was above 172 µg/mL.
Take `CC[C@H](C)[C@H](NC(=O)[C@H](Cc1ccc(O)cc1)NC(=O)[C@@H]1CCCN1C(=O)[C@H](CC(C)C)NC(=O)[C@H](CC(C)C)NC(=O)[C@H](CCCCN)NC(=O)[C@H](CC(C)C)NC(=O)[C@H](C)NC(=O)[C@@H](NC(=O)[C@H](CCCNC(=N)N)NC(=O)CNC(=O)[C@@H](NC(=O)[C@H](CCCCN)NC(=O)[C@H](C)NC(=O)[C@H](Cc1c[nH]c2ccccc12)NC(=O)[C@H](CC(N)=O)NC(=O)[C@@H](NC(=O)[C@H](CCCNC(=N)N)NC(=O)[C@@H](N)CCCCN)C(C)C)C(C)C)[C@@H](C)O)C(=O)N[C@@H](Cc1ccccc1)C(=O)NCC(=O)O` [As-CATH8] (H-KRVNWAKVGRTALKLLPYIFG-OH): the MIC with K. pneumoniae is 0.5 µM (≈ 1.22 µg/mL); in the series on E. cloacae, 0.5 µM (≈ 1.22 µg/mL); against A. baumannii, 0.25 µM (≈ 0.608 µg/mL); against P. vulgaris, 4 µM (≈ 9.72 µg/mL); in the series on S. aureus it was 0.5 µM (≈ 1.22 µg/mL); with S. Typhimurium it was 1 µM. Moreover, the figures for the MIC in the series with P. aeruginosa, against E. faecium and against E. coli were 1 µM (≈ 2.43 µg/mL), above 64 µM and 1 µM (≈ 2.43 µg/mL), respectively. In addition, the MBIC95 in the series with E. coli biofilm was 1 µM.
With `CC[C@H](C)[C@H](NC(=O)[C@H](C)NC(=O)CNC(=O)[C@H](CC(N)=O)NC(=O)[C@H](CC(C)C)NC(=O)[C@@H](NC(=O)[C@H](CCCCN)NC(=O)[C@H](CCCCN)NC(=O)[C@H](Cc1c[nH]c2ccccc12)NC(=O)[C@H](Cc1c[nH]c2ccccc12)NC(=O)[C@H](CCCCN)NC(=O)[C@H](CCCNC(=N)N)NC(=O)[C@H](CCCNC(=N)N)NC(=O)[C@@H](N)[C@@H](C)O)C(C)C)C(=O)N[C@@H](CCCCN)C(=O)N[C@H](C(=O)N[C@@H](C)C(=O)N1CCC[C@H]1C(=O)N[C@@H](Cc1ccc(O)cc1)C(=O)N[C@H](C(=O)N[C@@H](CC(C)C)C(=O)N[C@@H](CC(=O)O)C(=O)O)[C@@H](C)CC)[C@@H](C)CC` [Gg-CATH5] (H-TRRKWWKKVLNGAIKIAPYILD-OH), the minimum inhibitory concentration (MIC) with K. pneumoniae was 0.5 µM (≈ 1.34 µg/mL); with A. baumannii it was 0.5 µM (≈ 1.34 µg/mL); in the series with P. vulgaris it was 8 µM (≈ 21.4 µg/mL); in the series on S. aureus, 1 µM (≈ 2.67 µg/mL); against P. aeruginosa it was 1 µM (≈ 2.67 µg/mL); against E. faecium it was above 64 µM. The compound further showed a minimum inhibitory concentration (MIC) against E. coli of 4 µM (≈ 10.7 µg/mL). In addition, in the series with E. coli biofilm, the MBIC95 is 32 µM.
Regarding `CSCC[C@H](NC(=O)[C@@H](NC(=O)[C@H](Cc1ccc(O)cc1)NC(=O)[C@H](CO)NC(=O)[C@H](C)NC(=O)CNC(=O)[C@H](CC(C)C)NC(=O)CNC(=O)[C@@H](NC(=O)[C@H](CCCCN)NC(=O)[C@H](CCCNC(=N)N)NC(=O)[C@H](Cc1c[nH]c2ccccc12)NC(=O)[C@H](CC(N)=O)NC(=O)[C@@H](NC(=O)[C@H](CCCNC(=N)N)NC(=O)[C@@H](N)CCCCN)C(C)C)C(C)C)C(C)C)C(=O)N[C@@H](CO)C(=O)N[C@@H](Cc1c[nH]c2ccccc12)C(=O)N[C@@H](CC(C)C)C(=O)NCC(=O)O` [Gg-CATH7] (H-KRVNWRKVGLGASYVMSWLG-OH), the results for the MIC in the series on E. cloacae and with S. Typhimurium were 2 µM (≈ 4.62 µg/mL) and 4 µM, respectively. In the series with P. aeruginosa biofilm, this compound had an MBIC95 above 148 µg/mL.
`CC[C@H](C)[C@H](NC(=O)[C@H](CCCCN)NC(=O)[C@H](CCC(=O)O)NC(=O)[C@H](CCCCN)NC(=O)[C@H](CO)NC(=O)[C@H](CCCCN)NC(=O)[C@H](CCCNC(=N)N)NC(=O)[C@H](Cc1ccccc1)NC(=O)[C@H](Cc1ccccc1)NC(=O)[C@H](CC(=O)O)NC(=O)CNC(=O)[C@H](CC(C)C)NC(=O)[C@@H](N)CC(C)C)C(=O)NCC(=O)N[C@@H](CCCCN)C(=O)N[C@@H](CCC(=O)O)C(=O)N[C@@H](Cc1ccccc1)C(=O)N[C@@H](CCCCN)C(=O)N[C@@H](CCCNC(=N)N)C(=O)N[C@H](C(=O)N[C@H](C(=O)N[C@@H](CCC(N)=O)C(=O)N[C@@H](CCCNC(=N)N)C(=O)N[C@H](C(=O)N[C@@H](CCCCN)C(=O)N[C@@H](CC(=O)O)C(=O)N[C@@H](Cc1ccccc1)C(=O)N[C@@H](CC(C)C)C(=O)N[C@@H](CCCNC(=N)N)C(=O)N[C@@H](CC(N)=O)C(=O)N[C@@H](CC(C)C)C(=O)N[C@H](C(=O)N1CCC[C@H]1C(=O)N[C@@H](CCCNC(=N)N)C(=O)N[C@H](C(=O)N[C@@H](CCC(=O)O)C(=O)N[C@@H](CO)C(=O)O)[C@@H](C)O)C(C)C)[C@@H](C)CC)C(C)C)[C@@H](C)CC` [LL-37]: the “Cytotoxicity (LDH release)” value in series [1] and in series [2] was “moderately cytotoxic” each time. In the series on S. Typhimurium (S. Typhimurium, microdilution in MHB, value in brackets of Table S4), the minimal inhibitory concentration (MIC) was determined as 72 µg/mL. The “Tissue damage or peptide precipitation at the site of injection” value in series [3] was “no evidence of tissue damage or peptide precipitation”.
“VRLIVAVRIWRR-NH2 [IDR-1018, immunomodulatory peptide used as control]”: the “Cytotoxicity (LDH release)” value in series [1] and in series [2] was “low cytotoxicity” each time.

The record behind these values is paper PMC9686568, “Novel Alligator Cathelicidin As-CATH8 Demonstrates Anti-Infective Activity against Clinically Relevant and Crocodylian Bacterial Pathogens” (Antibiotics, 2022).
